# Measured values: paper PMC3402509 (Investigational New Drugs, 2011)
# Where two headings read alike, the source gives them in different places.
# How the values were obtained:
# [1] = system: NSCLC; details: dasatinib monotherapy, phase II; cited from earlier work
# [2] = system: SFK PY-416 (P-SFK); experiment: P-SFK peripheral blood mononuclear cell; assay type: in vivo, patients; details: for P-SFK levels in PBMCs compared to same day pre-dasatinib dosing levels: day 15 (with cetuximab)
# [3] = Dasatinib pharmacokinetic studies in plasma; assay type: in vivo, patients; details: for Cmax: Cmax Geomean (%CV)
smiles,measurement,setting,value
"Cc1nc(Nc2ncc(C(=O)Nc3c(C)cccc3Cl)s2)cc(N2CCN(CCO)CC2)n1 [dasatinib, N-(2-chloro-6-methyl-phenyl)-2-(6-(4-(2-hydroxyethyl)-piperazin-1-yl)-2-methylpyrimidin-4-ylamino)thiazole-5-carboxamide]",DLT (patients),"dose level 1, dasatinib 100 mg once daily plus weekly cetuximab, 3 (3) patients (evaluable)",None
same,DLT (patients),"dose level 2, dasatinib 150 mg once daily plus weekly cetuximab, 19 (14) patients (evaluable)",1
same,DLT (patients),"dose level 2, dasatinib 150 mg once daily plus weekly cetuximab, 19 (14) patients (evaluable), listed as Dasatinib",1 (Headache)
same,DLT (patients),"dose level 3, dasatinib 200 mg once daily plus weekly cetuximab, 3 (2) patients (evaluable)",2
same,patients with either a partial response or SD,[1],43%
same,P-SFK levels in PBMCs compared to baseline,"[2]; day 0, 4 hours following dasatinib dosing",tended to be reduced
same,P-SFK levels in PBMCs compared to baseline,"[2]; day 0, 8 hours following dasatinib dosing",significantly reduced
same,P-SFK levels in PBMCs compared to baseline,"[2]; day 0, 24 hours following dasatinib dosing",did not differ from baseline levels
same,P-SFK levels in PBMCs compared to same day pre-dasatinib dosing levels,"[2]; 8 hours, P=0.03",significantly decreased
same,P-SFK levels in PBMCs compared to same day pre-dasatinib dosing levels,"[2]; 24 hours, P=0.18",did not differ from pre-dasatinib dosing levels
same,T-HALF Mean (SD),"[3]; 100 mg oral, Day 0 (alone), N=3",6.8 (0.1) h
same,T-HALF Mean (SD),"[3]; 100 mg oral, Day 15 (with cetuximab), N=3",6.4 (0.1) h
same,T-HALF Mean (SD),"[3]; 150 mg oral, Day 0 (alone), N=18",5.2 (1.0) h
same,T-HALF Mean (SD),"[3]; 200 mg oral, Day 0 (alone), N=3",5.1 (0.6) h
same,half-life,"[3]; human, plasma, po",5 to 6 h
same,Cmax,"[3]; human, plasma, po, 100 mg, 100 mg oral, Day 0 (alone), N=3",101 ng/mL
same,Tmax,"[3]; human, plasma, po, 100 mg, Tmax Med (Min, Max), 100 mg oral, Day 0 (alone), N=3",1 h
same,Cmax,"[3]; human, plasma, po, 150 mg, 150 mg oral, Day 0 (alone), N=18",144 ng/mL
same,Tmax,"[3]; human, plasma, po, 150 mg, Tmax Med (Min, Max), 150 mg oral, Day 0 (alone), N=18",1.5 h
same,Cmax,"[3]; human, plasma, po, 200 mg, 200 mg oral, Day 0 (alone), N=3",415 ng/mL
same,Tmax,"[3]; human, plasma, po, 200 mg, Tmax Med (Min, Max), 200 mg oral, Day 0 (alone), N=3",1 h
same,Tmax,"[3]; human, plasma, po, Tmax, text summary over dose levels",1 to 2 h
same,PK parameters (AUC and T-HALF) given alone (day 0) versus in combination with cetuximab (day 15),[3]; in vivo,comparable
